Source: PubChem BioAssay AID1963446 (Molecular Pharmacology Branch, DTP, NCI, 2024)
Several values for one entry are separate records, joined by “and”; a condition that tells them apart may be missing. Equal values may be shown once.

Test system: 993429-296-R-J1-PDC complex spheroid growth, percent test/control
Assay: Anticancer human tumor 993429-296-R-J1-PDC patient-derived uterine sarcoma cell line growth inhibition [Asc]
Details: for viability, T/C: stronger effect = lower value
Summary of the method: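 Spheroid model: tumor line + HUVEC + hMSC. Single agents and combinations; top conc. at/near clinical Cmax (10 microM if undetermined), half-log dilutions. DMSO stocks at 800-fold test concentration.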
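Further: spheroids exposed to compounds for seven days.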

Compound: Cc1nc(N2CCC3(CC2)COC(C)C3N)c(CO)nc1Sc1ccnc(N)c1Cl (stereo unspecified)
- viability, T/C (compound 0.00949 µM): 94.6% and 84.2% and 83.6%
- viability, T/C (compound 0.03 µM): 93.1% and 77% and 87.6%
- viability, T/C (compound 0.0949 µM): 75.2% and 65.9% and 54.9%
- viability, T/C (compound 0.3 µM): 58.9% and 43% and 42.1%
- viability, T/C (compound 0.949 µM): 49% and 32.2% and 34.5%
- viability, T/C (compound 3 µM): 40.3% and 25.8% and 27.8%
- IC50 (curve of compound): 712 nM and 216 nM and 144 nM

Compound: Cc1c(S(C)(=O)=O)c(-c2cc(F)cc(N3CCN(c4ccc(NS(=O)(=O)c5ccc(NC(CCN6CCC(C(=O)OCCCP(=O)(O)O)CC6)CSc6ccccc6)c(S(=O)(=O)C(F)(F)F)c5)cc4)CC3)c2)c(-c2ccc(Cl)cc2)n1C(C)C (stereo unspecified)
- viability, T/C (compound 0.316 µM): 60.7% [middle of 14 runs]
- viability, T/C (compound 3.16 µM): 49.6% [middle of 14 runs]

Compound: C#Cc1c(F)ccc2cc(O)cc(-c3ncc4c(N5CC6CCC(C5)N6)nc(OCC56CCCN5CC(F)C6)nc4c3F)c12 (stereo unspecified) + CCN1C(C(=O)NC23CCC(C(=O)O)(CC2)CC3)C(c2cccc(Cl)c2F)C2(C(=O)Nc3cc(Cl)ccc32)C12CCCCC2
- IC50 (curve of first compound, second compound 0.03 µM): 5140 nM
- IC50 (curve of first compound, second compound 0.0949 µM): 5400 nM
- IC50 (curve of first compound, second compound 0.3 µM): 5550 nM
- IC50 (curve of first compound, second compound 0.949 µM): 5320 nM
- IC50 (curve of first compound, second compound 3 µM): 4940 nM
- viability, T/C (second compound 0.03 µM, first compound 0.0316 µM): 93.3%
- viability, T/C (second compound 0.03 µM, first compound 0.1 µM): 96.5%
- viability, T/C (second compound 0.03 µM, first compound 0.316 µM): 106%
- viability, T/C (second compound 0.03 µM, first compound 1 µM): 84%
- viability, T/C (second compound 0.03 µM, first compound 3.16 µM): 86.3%
- viability, T/C (second compound 0.03 µM, first compound 10 µM): 2.52%
- viability, T/C (second compound 0.0949 µM, first compound 0.0316 µM): 96.1%
- viability, T/C (second compound 0.0949 µM, first compound 0.1 µM): 95.4%
- viability, T/C (second compound 0.0949 µM, first compound 0.316 µM): 83.8%
- viability, T/C (second compound 0.0949 µM, first compound 1 µM): 115%
- viability, T/C (second compound 0.0949 µM, first compound 3.16 µM): 86.2%
- viability, T/C (second compound 0.0949 µM, first compound 10 µM): 8.51%
- viability, T/C (second compound 0.3 µM, first compound 0.0316 µM): 87.8%
- viability, T/C (second compound 0.3 µM, first compound 0.1 µM): 95.3%
- viability, T/C (second compound 0.3 µM, first compound 0.316 µM): 90.3%
- viability, T/C (second compound 0.3 µM, first compound 1 µM): 117%
- viability, T/C (second compound 0.3 µM, first compound 3.16 µM): 92.2%
- viability, T/C (second compound 0.3 µM, first compound 10 µM): 5.39%
- viability, T/C (second compound 0.949 µM, first compound 0.0316 µM): 104%
- viability, T/C (second compound 0.949 µM, first compound 0.1 µM): 98.5%
- viability, T/C (second compound 0.949 µM, first compound 0.316 µM): 107%
- viability, T/C (second compound 0.949 µM, first compound 1 µM): 98.5%
- viability, T/C (second compound 0.949 µM, first compound 3.16 µM): 89.8%
- viability, T/C (second compound 0.949 µM, first compound 10 µM): 1.38%
- viability, T/C (second compound 3 µM, first compound 0.0316 µM): 100%
- viability, T/C (second compound 3 µM, first compound 0.1 µM): 96.7%
- viability, T/C (second compound 3 µM, first compound 0.316 µM): 96.6%
- viability, T/C (second compound 3 µM, first compound 1 µM): 109%
- viability, T/C (second compound 3 µM, first compound 3.16 µM): 73.5%
- viability, T/C (second compound 3 µM, first compound 10 µM): 12.8%

Compound: COc1c(OCCCN2CCOCC2)ccc2c3n(c(=NC(=O)c4cnc(N)nc4)nc12)CCN3
- viability, T/C (compound 0.00316 µM): 91.3% and 101% and 95.5%
- viability, T/C (compound 0.01 µM): 76.7% and 74.9% and 85.9%
- viability, T/C (compound 0.0316 µM): 32.1% and 39% and 47.7%
- viability, T/C (compound 0.1 µM): 7.79% and 8.14% and 20.2%
- viability, T/C (compound 0.316 µM): 3.91% and 3.64% and 6.96%
- viability, T/C (compound 1 µM): 1.4% and 1.43% and 2.5%
- IC50 (curve of compound): 20 nM and 21.5 nM and 31.6 nM
